PMC8262977, “A Dual-Specificity Inhibitor Targets Polyphosphate Kinase 1 and 2 Enzymes To Attenuate Virulence of Pseudomonas aeruginosa” (mBio, 2021)
Converted amounts (≈) assume the structure as drawn. Like-named read-outs stand apart in the source and are kept apart here.

Tests used:
[1] = tested on: E. coli PPK1; parameters: method as in earlier work; conditions: ref 1 (supplement: Ahn K, Kornberg A. 1990); cited from earlier work
[2] = target: T1, P. aeruginosa PPK1 (Pseudomonas aeruginosa, UniProt P0DP44); assay: PPK1 polyP synthesis from ATP, toluidine blue detection; format: biochemical; conditions: polyP synthesis from ATP; 275 nM enzyme
T1 construct: His tag (cleaved yes); made in house
Experimental: Compounds were synthesized as outlined in Text S1. Compounds were dissolved in DMSO to make 10 mM stocks and added to a 200 μM final concentration for initial screening. The screen for PPK1 inhibitors was conducted by measuring polyP synthesis activity as described previously ([12]), with the exception of the polyP detection method (see Text S1). […] One-hundred-microliter reaction mixtures were incubated at 37°C for 30 min, after which time 50-μl aliquots were withdrawn and added to 1,000 μl of 6-mg/liter toluidine blue dissolved in 40 mM acetic acid to quench the reaction and quantify polyP ([27]). The A630/530 nm ratio was then recorded, and the values obtained were corrected by subtracting the corresponding blanks (all ingredients except enzyme). The amount of polyP synthesized was calculated using a standard curve (Fig. S1A). Any compounds showing 50% or greater reduction in activity relative to the DMSO control were subjected to further IC50 analysis.
(§1) All IC50 and kinetic assay mixtures contained equimolar amounts (275 nM) of PPK to ensure valid comparison between different enzymes. PolyP synthesis activity (for PPK1 and PPK2B) was assayed using the reaction buffer and conditions described above. ATP concentration was varied as indicated for kinetic experiments. Curves were fit using GraphPad Prism V9.

[3] = target: T2, P. aeruginosa PPK2A (Pseudomonas aeruginosa, UniProt Q9I6Z1); assay: PPK2A ADP phosphorylation by polyP (ATP synthesis), toluidine blue detection; format: biochemical
T2 construct: residues P9 to P289; MBP (N, cleaved yes); His tag (N, cleaved yes); made in house; host or cells: E. coli BL21(DE3)
Experimental: as §1
(§2) Nucleotide phosphorylation activity of PPK2 enzymes was assayed in buffer containing 50 mM Tris-HCl, pH 7.5, 10 mM (NH4)2SO4, 10 mM MgCl2, 5 mM polyP45 (Sigma; in terms of individual Pi monomers), and nucleotide (ADP or AMP) at 5 mM for IC50 reactions or as indicated for kinetic experiments. Enzyme was added to a final concentration of 275 nM in 100-μl reaction volumes. One-hundred-microliter reaction mixtures were incubated at 37°C for 30 min, and then 5-μl aliquots were withdrawn and added to 1,000 μl of 6-mg/liter toluidine blue dissolved in 40 mM acetic acid to quench the reaction and quantify the polyP that remained. The A630/530 nm ratio was then recorded, and the values obtained were corrected by subtracting the corresponding blanks (all ingredients except enzyme). The amount of polyP consumed was calculated by subtracting the amount present after reaction from that present in the initial reaction mix, as calculated via a standard curve. Each monomer of Pi consumed from polyP equates to one nucleoside phosphorylated. Curves were fit using GraphPad Prism V9.

[4] = target: T3, P. aeruginosa PPK2B (Pseudomonas aeruginosa, UniProt Q9I154); assay: PPK2B polyP synthesis from ATP, toluidine blue detection; format: biochemical
T3 construct: MBP (N, cleaved yes); His tag (N, cleaved yes); made in house; host or cells: E. coli BL21(DE3)
Experimental: Compounds were synthesized as outlined in Text S1. Compounds were dissolved in DMSO to make 10 mM stocks and added to a 200 μM final concentration for initial screening. The screen for PPK1 inhibitors was conducted by measuring polyP synthesis activity as described previously ([12]), with the exception of the polyP detection method (see Text S1). The reaction mix contained 50 mM HEPES-KOH, pH 7.5, 40 mM (NH4)2SO4, 4 mM MgSO4, 60 mM creatine phosphate, 0.0625 mg/ml creatine kinase (Sigma; from rabbit muscle), 5 mM ATP, and 275 nM PPK1 (added last). One-hundred-microliter reaction mixtures were incubated at 37°C for 30 min, after which time 50-μl aliquots were withdrawn and added to 1,000 μl of 6-mg/liter toluidine blue dissolved in 40 mM acetic acid to quench the reaction and quantify polyP ([27]). The A630/530 nm ratio was then recorded, and the values obtained were corrected by subtracting the corresponding blanks (all ingredients except enzyme). The amount of polyP synthesized was calculated using a standard curve (Fig. S1A). Any compounds showing 50% or greater reduction in activity relative to the DMSO control were subjected to further IC50 analysis.
as §1

[5] = target: T4, P. aeruginosa PPK2C (Pseudomonas aeruginosa, UniProt Q9HYF1); assay: PPK2C AMP phosphorylation by polyP (ADP synthesis), toluidine blue detection; format: biochemical
T4 construct: MBP (N, cleaved yes); His tag (N, cleaved yes); made in house; host or cells: E. coli BL21(DE3)
Experimental: as §1, §2

[6] = tested on: HEK293T cells; assay: HEK293T cytotoxicity assay, trypan blue; format: cell-based, human; conditions: 48 h incubation
Experimental: HEK293 cells were grown in Dulbecco’s modified Eagle’s medium supplemented with 10% fetal bovine serum at 5% CO2 and 37°C. Cells were grown until a confluent monolayer was formed in 12-well culture plates, at which point inhibitors or DMSO was added. After 48-h incubation, cells were detached with trypsin and percent viability was scored via a hemocytometer and trypan blue staining.

[7] = tested on: P. aeruginosa; assay: Antibiotic synergy in the C. elegans LK model; format: in vivo, Caenorhabditis elegans; parameters: C. elegans antibiotic synergy, Mean Diff.: unit not given here
Experimental: Assessment of antibiotic synergy in the C. elegans model was adapted from previously described protocols ([25]). Briefly, glp-4 C. elegans worms were incubated at 25°C with P. aeruginosa and the indicated amount of gallein or DMSO in LK medium as described above. After 24 h, antibiotics were added. After another 24 h, C. elegans survival was scored as described above.

[8] = tested on: P. aeruginosa; assay: microbe, parasite or virus in culture; format: cell-based, Pseudomonas aeruginosa; conditions: Pseudomonas aeruginosa
[9] = ATP synthesis from ADP and polyP, 275 nM enzyme, read-out: IC50 PPK2A
[10] = Data Set S1, sheet Risen compounds, read-out: PA PPK2A IC50
[11] = polyP synthesis from ATP, 275 nM enzyme, read-out: IC50 PPK2B
[12] = ADP synthesis from AMP and polyP, 275 nM enzyme, read-out: IC50 PPK2C
[13] = Data Set S1, sheet Risen compounds, read-out: PA PPK2C IC50

T2 sequence (Q9I6Z1 68-348): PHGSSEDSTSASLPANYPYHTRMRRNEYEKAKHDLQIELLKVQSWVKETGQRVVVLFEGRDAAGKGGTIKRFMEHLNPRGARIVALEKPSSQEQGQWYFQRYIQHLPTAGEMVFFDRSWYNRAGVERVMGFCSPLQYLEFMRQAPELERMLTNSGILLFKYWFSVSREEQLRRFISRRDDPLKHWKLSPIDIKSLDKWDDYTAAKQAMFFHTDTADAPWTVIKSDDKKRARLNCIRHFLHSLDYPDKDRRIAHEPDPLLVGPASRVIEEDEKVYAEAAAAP
T1 sequence (P0DP44 whole entry): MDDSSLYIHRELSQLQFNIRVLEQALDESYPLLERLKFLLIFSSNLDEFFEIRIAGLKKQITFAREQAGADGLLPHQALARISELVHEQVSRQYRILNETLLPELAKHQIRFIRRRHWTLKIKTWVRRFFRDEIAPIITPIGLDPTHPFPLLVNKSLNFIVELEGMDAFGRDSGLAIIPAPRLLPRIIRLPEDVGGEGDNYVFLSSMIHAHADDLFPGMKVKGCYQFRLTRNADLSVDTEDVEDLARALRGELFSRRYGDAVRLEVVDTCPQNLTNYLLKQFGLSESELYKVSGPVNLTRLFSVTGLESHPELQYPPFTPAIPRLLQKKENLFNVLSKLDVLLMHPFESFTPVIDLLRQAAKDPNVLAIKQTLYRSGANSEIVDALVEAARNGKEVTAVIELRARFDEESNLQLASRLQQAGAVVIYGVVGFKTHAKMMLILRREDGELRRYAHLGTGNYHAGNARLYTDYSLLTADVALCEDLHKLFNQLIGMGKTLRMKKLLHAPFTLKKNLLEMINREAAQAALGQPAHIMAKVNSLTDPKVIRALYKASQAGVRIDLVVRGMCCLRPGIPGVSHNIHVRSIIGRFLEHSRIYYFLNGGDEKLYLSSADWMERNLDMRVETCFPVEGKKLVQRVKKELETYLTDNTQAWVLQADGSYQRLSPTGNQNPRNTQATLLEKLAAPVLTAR
T4 sequence (Q9HYF1 whole entry): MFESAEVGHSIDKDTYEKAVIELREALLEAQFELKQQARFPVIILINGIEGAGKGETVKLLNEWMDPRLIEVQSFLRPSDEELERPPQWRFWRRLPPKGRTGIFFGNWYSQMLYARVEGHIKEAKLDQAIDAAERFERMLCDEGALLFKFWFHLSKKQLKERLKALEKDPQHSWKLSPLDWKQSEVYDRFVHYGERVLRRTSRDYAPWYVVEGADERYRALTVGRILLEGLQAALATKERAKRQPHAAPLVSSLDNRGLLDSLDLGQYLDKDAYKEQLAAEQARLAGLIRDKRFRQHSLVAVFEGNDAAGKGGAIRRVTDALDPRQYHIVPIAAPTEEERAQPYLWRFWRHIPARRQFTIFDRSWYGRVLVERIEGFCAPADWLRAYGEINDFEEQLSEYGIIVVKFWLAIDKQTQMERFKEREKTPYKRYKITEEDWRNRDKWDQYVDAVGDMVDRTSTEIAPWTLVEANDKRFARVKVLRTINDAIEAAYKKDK
T3 sequence (Q9I154 whole entry): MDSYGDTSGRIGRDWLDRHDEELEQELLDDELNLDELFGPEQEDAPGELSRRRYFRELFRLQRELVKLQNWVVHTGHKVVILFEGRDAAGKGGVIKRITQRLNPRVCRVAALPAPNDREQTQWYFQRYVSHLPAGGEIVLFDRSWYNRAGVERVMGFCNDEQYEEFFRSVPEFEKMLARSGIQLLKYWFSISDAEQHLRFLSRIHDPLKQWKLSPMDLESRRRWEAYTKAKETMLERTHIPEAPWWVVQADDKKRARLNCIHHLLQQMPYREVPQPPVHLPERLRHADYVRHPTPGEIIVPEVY

SMILES: Nc1ncnc2c1ncn2[C@@H]1O[C@H](COP(=O)(O)OP(=O)(O)O)[C@@H](O)[C@H]1O [ADP]
- Ki [1]: 90 µM

SMILES: COc1ccc2c(c1OC)c(=O)oc1c(OC)c(O)ccc12 [RT1, 3-hydroxy-4,7,8-trimethoxy-6H-benzo[c]chromen-6-one]
- IC50 [2]: 120 ± 10 µM
- IC50 [3, 9]: > 500 µM
- IC50 [3, 10]: > 500 µM
- IC50 ([4]; Data Set S1, sheet Risen compounds, read-out: PA PPK2B IC50): > 500 µM
- IC50 [4, 11]: > 500 µM
- IC50 [5, 12]: > 500 µM
- IC50 [5, 13]: > 500 µM
- reduction of cell viability [6]: ~60%

SMILES: O=c1oc2c(O)c(O)c(O)c3c(=O)oc4c(O)c(O)cc1c4c23 [RT2, 1,2,3,7,8-pentahydroxychromeno[5,4,3-cde]chromene-5,10-dione]
- IC50 [2]: 20 ± 4 µM
- IC50 [3, 9]: > 500 µM
- IC50 [3, 10]: > 500 µM
- IC50 [4, 11]: 59 ± 5 µM
- IC50 [5, 12]: > 500 µM
- IC50 [5, 13]: > 500 µM

SMILES: O=c1oc2c(O)c(O)cc3c(=O)oc4c(O)c(O)cc1c4c23 [RT3 (ellagic acid), 2,3,7,8-tetrahydroxychromeno[5,4,3-cde]chromene-5,10-dione]
- IC50 [2]: 20 ± 2 µM
- IC50 [3, 9]: 50 ± 6 µM
- IC50 [4, 11]: 48 ± 2 µM
- IC50 [5, 12]: > 500 µM
- IC50 [5, 13]: > 500 µM

SMILES: O=C(O)c1cn(C2CC2)c2cc(N3CCNCC3)c(F)cc2c1=O [ciprofloxacin, reference compound]
- C. elegans antibiotic synergy, Mean Diff. ([7]; No antibiotic + 100 µM gallein vs Cipro (0.75 µg/mL) + 100 µM gallein): -18.9
- C. elegans antibiotic synergy, Mean Diff. ([7]; No antibiotic DMSO vs Cipro (0.75 µg/mL) DMSO): 12.02

SMILES: CN(C)[C@@H]1C(O)=C(C(N)=O)C(=O)[C@@]2(O)C(O)=C3C(=O)c4c(O)cccc4[C@@](C)(O)[C@H]3C[C@@H]12 [tetracycline, reference compound]
- C. elegans antibiotic synergy, Mean Diff. ([7]; No antibiotic + 100 µM gallein vs Tet (10 µg/mL) + 100 µM gallein): -22.79
- C. elegans antibiotic synergy, Mean Diff. ([7]; No antibiotic DMSO vs Tet (10 µg/mL) DMSO): 10.54
- MIC [8]: 16 µg/mL (≈ 36 µM)
